Structures can show the parent of a compound that is named as a salt.
biological target: T1, ALK2 (Homo sapiens, UniProt Q04771); assay: LanthaScreen Eu Kinase Binding Assay, ALK2 inhibition; settings: 1 micromolar concentration
T1 construct: purchased ThermoFisher Scientific (Life Technologies)
T1 sequence (Q04771 21-509): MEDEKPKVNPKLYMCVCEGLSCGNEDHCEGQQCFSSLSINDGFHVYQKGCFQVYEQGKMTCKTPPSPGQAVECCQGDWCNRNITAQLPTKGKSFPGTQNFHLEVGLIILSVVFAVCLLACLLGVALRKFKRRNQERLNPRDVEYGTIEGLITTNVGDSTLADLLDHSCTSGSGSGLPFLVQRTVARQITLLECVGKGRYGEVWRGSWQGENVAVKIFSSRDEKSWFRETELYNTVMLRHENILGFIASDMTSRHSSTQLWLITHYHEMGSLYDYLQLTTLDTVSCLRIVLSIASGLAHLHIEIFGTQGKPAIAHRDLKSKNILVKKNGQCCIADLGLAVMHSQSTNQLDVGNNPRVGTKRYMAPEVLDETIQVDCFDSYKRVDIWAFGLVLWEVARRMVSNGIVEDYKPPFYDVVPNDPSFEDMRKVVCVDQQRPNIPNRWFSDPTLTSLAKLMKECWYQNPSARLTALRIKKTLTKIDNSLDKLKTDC
Procedure: Biochemical assays to measure the inhibitory effects of the compounds were performed by ThermoFisher Scientific (Life Technologies). ALK2 inhibition was tested using LanthaScreen™ Eu Kinase Binding Assay screening protocol.

Row | SMILES | inhibition at 1 µM
1 | COc1cc(-n2cnc(Nc3nc(C4=CN(C(=O)OC(C)(C)C)CC4)nc4c3cnn4C(C)C)c2)cc(OC)c1OC [Compound 40b, tert-butyl 4-(1-isopropyl-4-((1-(3,4,5-trimethoxyphenyl)-1H-imidazol-4-yl)amino)-1H-pyrazolo[3,4-d]pyrimidin-6-yl)-2,3-dihydro-1H-pyrrole-1-carboxylate] | > 50%
2 | COc1cc(-n2cnc(Nc3nc(C4CCN(C(=O)OC(C)(C)C)C4)nc4c3cnn4C(C)C)c2)cc(OC)c1OC (stereo not shown) [Compound 41a, tert-butyl 3-(1-isopropyl-4-((1-(3,4,5-trimethoxyphenyl)-1H-imidazol-4-yl)amino)-1H-pyrazolo[3,4-d]pyrimidin-6-yl)pyrrolidine-1-carboxylate] | > 50%
3 | COc1cc(-n2cnc(Nc3nc(C4CCCC4)nc4c3cnn4C(C)C)c2)cc(OC)c1OC [Compound 44e, 6-cyclopentyl-1-isopropyl-N-(1-(3,4,5-trimethoxyphenyl)-1H-imidazol-4-yl)-1H-pyrazolo[3,4-d]pyrimidin-4-amine] | > 50%
4 | COc1cc(-n2cnc(Nc3nc(C4CCOC4)nc4c3cnn4C(C)C)c2)cc(OC)c1OC (stereo not shown) [Compound 45e, 1-isopropyl-6-(tetrahydrofuran-3-yl)-N-(1-(3,4,5-trimethoxyphenyl)-1H-imidazol-4-yl)-1H-pyrazolo[3,4-d]pyrimidin-4-amine] | > 50%
5 | COc1cc(-n2cnc(Nc3nc(CC(C)C)nc4c3CCC4c3ccccc3)c2)cc(OC)c1OC (stereo not shown) [Compound 46d, 2-isobutyl-7-phenyl-N-(1-(3,4,5-trimethoxyphenyl)-1H-imidazol-4-yl)-6,7-dihydro-5H-cyclopenta[d]pyrimidin-4-amine] | > 50%
6 | COc1cc(-n2cnc(Nc3nc(C4CCN(C)CC4)nc4c3cnn4C(C)C)c2)cc(OC)c1OC [Compound 48a, 1-isopropyl-6-(1-methylpiperidin-4-yl)-N-(1-(3,4,5-trimethoxyphenyl)-1H-imidazol-4-yl)-1H-pyrazolo[3,4-d]pyrimidin-4-amine] | > 50%
7 | C=C(C)c1nc(Nc2cn(-c3cc(OC)c(OC)c(OC)c3)cn2)nc2ccsc12 [Compound 53c, 4-(prop-1-en-2-yl)-N-(1-(3,4,5-trimethoxyphenyl)-1H-imidazol-4-yl)thieno[3,2-d]pyrimidin-2-amine] | > 50%
8 | COc1cc(-n2cnc(Nc3nc(C4CC(OCc5ccccc5)C4)nc4c3cnn4C(C)C)c2)cc(OC)c1OC (stereo not shown) [Compound 57e, 6-(3-(benzyloxy)cyclobutyl)-1-isopropyl-N-(1-(3,4,5-trimethoxyphenyl)-1H-imidazol-4-yl)-1H-pyrazolo[3,4-d]pyrimidin-4-amine] | > 50%
9 | C=C(C)c1nc2c(c(Nc3cn(-c4cc(OC)c(OC)c(OC)c4)cn3)n1)CCC2 [Compound 60c, 2-(prop-1-en-2-yl)-N-(1-(3,4,5-trimethoxyphenyl)-1H-imidazol-4-yl)-6,7-dihydro-5H-cyclopenta[d]pyrimidin-4-amine] | > 50%
10 | C=C(C)c1nc(Nc2cn(-c3cc(OC)c(OC)c(OC)c3)cn2)c2ncsc2n1 [Compound 63c, 5-(prop-1-en-2-yl)-N-(1-(3,4,5-trimethoxyphenyl)-1H-imidazol-4-yl)thiazolo[5,4-d]pyrimidin-7-amine] | > 50%
11 | C=C(C)c1nc(Nc2cn(-c3cc(OC)c(OC)c(OC)c3)cn2)c2ccc(OC)cc2n1 [Compound 64c, 7-methoxy-2-(prop-1-en-2-yl)-N-(1-(3,4,5-trimethoxyphenyl)-1H-imidazol-4-yl)quinazolin-4-amine] | > 50%
12 | C=C(C)c1nc(Nc2cn(-c3cc(OC)c(OC)c(OC)c3)cn2)c2cc(OC)c(OC)cc2n1 [Compound 65c, 6,7-dimethoxy-2-(prop-1-en-2-yl)-N-(1-(3,4,5-trimethoxyphenyl)-1H-imidazol-4-yl)quinazolin-4-amine] | < 50%
13 | C=C(C)c1nc(Nc2cn(-c3cc(OC)c(OC)c(OC)c3)cn2)nc2cc(OC)c(OC)cc12 [Compound 68b, 6,7-dimethoxy-4-(prop-1-en-2-yl)-N-(1-(3,4,5-trimethoxyphenyl)-1H-imidazol-4-yl)quinazolin-2-amine] | > 50%
14 | C=C(C)c1nc2c(c(Nc3cn(-c4cc(OC)c(OC)c(OC)c4)cn3)n1)COC2 [Compound 71c, 2-(prop-1-en-2-yl)-N-(1-(3,4,5-trimethoxyphenyl)-1H-imidazol-4-yl)-5,7-dihydrofuro[3,4-d]pyrimidin-4-amine] | > 50%

Further lines, results first:

Row | inhibition at 1 µM | SMILES
15 | > 50% | COc1cc(-n2cnc(Nc3nc(C(C)C)nc4c3cnn4-c3ccc(F)cc3F)c2)cc(OC)c1OC [Compound 42d, 1-(2,4-difluorophenyl)-6-isopropyl-N-(1-(3,4,5-trimethoxyphenyl)-1H-imidazol-4-yl)-1H-pyrazolo[3,4-d]pyrimidin-4-amine]
16 | > 50% | COc1cc(-n2cnc(Nc3nc(C(C)C)nc4c3cnn4-c3c(F)cccc3F)c2)cc(OC)c1OC [Compound 43d, 1-(2,6-difluorophenyl)-6-isopropyl-N-(1-(3,4,5-trimethoxyphenyl)-1H-imidazol-4-yl)-1H-pyrazolo[3,4-d]pyrimidin-4-amine]
17 | > 50% | COc1cc(-n2cnc(Nc3nc(C(C)CC(O)CO)nc4c3cnn4C(C)C)c2)cc(OC)c1OC (stereo not shown) [Compound 47a, 4-(1-isopropyl-4-((1-(3,4,5-trimethoxyphenyl)-1H-imidazol-4-yl)amino)-1H-pyrazolo[3,4-d]pyrimidin-6-yl)pentane-1,2-diol]
18 | > 50% | COc1cc(-n2cnc(Nc3nc(C(C)CCO)nc4c3cnn4C(C)C)c2)cc(OC)c1OC (stereo not shown) [Compound 49b, 3-(1-isopropyl-4-((1-(3,4,5-trimethoxyphenyl)-1H-imidazol-4-yl)amino)-1H-pyrazolo[3,4-d]pyrimidin-6-yl)butan-1-ol]
19 | > 50% | CNCCC(C)c1nc(Nc2cn(-c3cc(OC)c(OC)c(OC)c3)cn2)c2cnn(C(C)C)c2n1 (stereo not shown) [Compound 50a, 1-isopropyl-6-(4-(methylamino)butan-2-yl)-N-(1-(3,4,5-trimethoxyphenyl)-1H-imidazol-4-yl)-1H-pyrazolo[3,4-d]pyrimidin-4-amine]
20 | > 50% | C=C(C)c1nc(Nc2cn(-c3cc(OC)c(OC)c(OC)c3)cn2)c2sccc2n1 [Compound 51c, 2-(prop-1-en-2-yl)-N-(1-(3,4,5-trimethoxyphenyl)-1H-imidazol-4-yl)thieno[3,2-d]pyrimidin-4-amine]
21 | > 50% | COc1cc(-n2cnc(Nc3nc(C(C)C)nc4ccsc34)c2)cc(OC)c1OC [Compound 52b, 2-isopropyl-N-(1-(3,4,5-trimethoxyphenyl)-1H-imidazol-4-yl)thieno[3,2-d]pyrimidin-4-amine hydrochloride]
22 | > 50% | COc1cc(-n2cnc(Nc3nc(C(C)C)c4sccc4n3)c2)cc(OC)c1OC [Compound 54a, 4-isopropyl-N-(1-(3,4,5-trimethoxyphenyl)-1H-imidazol-4-yl)thieno[3,2-d]pyrimidin-2-amine]
23 | > 50% | C=C(C)c1nc(Nc2cn(-c3cc(OC)c(OC)c(OC)c3)cn2)nc2ccccc12 [Compound 55c, 4-(prop-1-en-2-yl)-N-(1-(3,4,5-trimethoxyphenyl)-1H-imidazol-4-yl)quinazolin-2-amine]
24 | > 50% | COc1cc(-n2cnc(Nc3nc(C(C)C)c4ccccc4n3)c2)cc(OC)c1OC [Compound 56a, 4-isopropyl-N-(1-(3,4,5-trimethoxyphenyl)-1H-imidazol-4-yl)quinazolin-2-amine]
25 | > 50% | COc1cc(-n2cnc(Nc3nc(C4CC(O)C4)nc4c3cnn4C(C)C)c2)cc(OC)c1OC (stereo not shown) [Compound 58a, 3-(1-isopropyl-4-((1-(3,4,5-trimethoxyphenyl)-1H-imidazol-4-yl)amino)-1H-pyrazolo[3,4-d]pyrimidin-6-yl)cyclobutanol]
26 | > 50% | CCCCCC(C)c1nc(Nc2cn(-c3cc(OC)c(OC)c(OC)c3)cn2)c2cnn(C(C)C)c2n1 (stereo not shown) [Compound 59e, 6-(heptan-2-yl)-1-isopropyl-N-(1-(3,4,5-trimethoxyphenyl)-1H-imidazol-4-yl)-1H-pyrazolo[3,4-d]pyrimidin-4-amine]
27 | > 50% | C=C(C)c1nc(Nc2cn(-c3cc(OC)c(OC)c(OC)c3)cn2)c2cccn2n1 [Compound 61c, 2-(prop-1-en-2-yl)-N-(1-(3,4,5-trimethoxyphenyl)-1H-imidazol-4-yl)pyrrolo[2,1-f][1,2,4]triazin-4-amine]
28 | > 50% | COc1cc(-n2cnc(Nc3nc(C(C)C)nn4cccc34)c2)cc(OC)c1OC [Compound 67a, 2-isopropyl-N-(1-(3,4,5-trimethoxyphenyl)-1H-imidazol-4-yl)pyrrolo[2,1-f][1,2,4]triazin-4-amine]
29 | > 50% | COc1cc(-n2cnc(Nc3nc(C(C)C)nc4c3OCC4)c2)cc(OC)c1OC [Compound 69a, 2-isopropyl-N-(1-(3,4,5-trimethoxyphenyl)-1H-imidazol-4-yl)-6,7-dihydrofuro[3,2-d]pyrimidin-4-amine]
30 | > 50% | C=C(C)c1nc(Nc2cn(-c3cc(OC)c(OC)c(OC)c3)cn2)c2ccccc2n1 [Compound 70b, 2-(prop-1-en-2-yl)-N-(1-(3,4,5-trimethoxyphenyl)-1H-imidazol-4-yl)quinazolin-4-amine]
31 | > 50% | COc1cc(-n2cnc(Nc3nc(C(C)C)nc4c3COC4)c2)cc(OC)c1OC [Compound 72a, 2-isopropyl-N-(1-(3,4,5-trimethoxyphenyl)-1H-imidazol-4-yl)-5,7-dihydrofuro[3,4-d]pyrimidin-4-amine]

From patent US20240270750A1, “IMIDAZOLE-CONTAINING INHIBITORS OF ALK2 KINASE” (BioCryst Pharmaceuticals, Inc., priority 2021, published 2024)
